Earlier results in US20260335223A1, “Topical Copolymer Formulations for Hydrophobic Drug Delivery” (1376683 B.C. LTD, priority 2023, published 2026).

Assays:
[1] = background statement; cited from earlier work
[2] = diblock copolymer micelles, background; cited from earlier work

Q: With CC[C@@]1(O)C(=O)OCc2c1cc1n(c2=O)Cc2cc3ccccc3nc2-1 [camptothecin] as the compound, how does the Water solubility [1] read?
A: 1 µg/mL

Q: What about the “Formation of drug-loaded micelles” value [2] of the same compound?
A: do not form drug-loaded micelles
